Data on one molecule can be found in patent US20260000645A1, “USE OF EBSELEN OR ONE OF THE DERIVATIVES THEREOF TO TREAT MITOCHONDRIAL PATHOLOGIES OR DYSFUNCTIONS” (ASSOCIATION FRANCAISE CONTRE LES MYOPATHIES, priority 2022, published 2026).

SMILES strings stand for the structures.

Data set [1] has as its system fibroblasts of TAZ patients. In words: Respiratory growth/proliferation of fibroblasts of TAZ patients (SRB, low glucose). Type of data set: cell-based, human. As for the experimental part:
EBS was tested for the effect thereof on the respiratory growth of fibroblasts of TAZ patients, as opposed to fibroblasts from eight different patients, carriers of mutations in the TAZ gene (suffering from Barth's syndrome).
The rate of proliferation was measured in a medium with a weak concentration of glucose (1 g/L; to force cells to use the OXPHOS system rather than glycolyse) in 384 well micro-titration plates (1200 cells/wells at T0) using the Sulforhodamine B (SRB) staining protocol at 24, 48, 72 or 96 hours after placing the cells with or without 12.15 nM of EBS.
The data are the average of 8 patients or 3 controls in triplicate, in 4 independent experiments.
The rate of proliferation was then measured under the same experimental conditions but with variable concentrations of ethaselen: The cells were analyzed 96 hours after treatment with increasing doses of ethaselen (from 150 pM to 26.1 μM). The bars represent the average of 4 replicates coming from 2 patients in 3 independent experiments.

For data set [2], the system named is mutant yeast strains (cox2, sym1, fmc1, atp6, taz1, shy1, A29G). In words: Halos test: respiratory growth of mutant yeast strains on non-fermentable solid medium. As to conditions: 30 and 90 nmoles on filter, 28° C. or 36° C., 4 to 5 days. Format: cell-based, Saccharomyces cerevisiae. As for the experimental part:
Each of the strains of the yeast Saccharomyces cerevisiae used in these examples contain different specific mutations modeling human mutations leading to mitochondrial illnesses. At varying degrees, all these mutant yeast strains have a growth defect when cultivated on a respiratory medium such as ethanol or glycerol at 28° C. or 36° C. (depending on the strain).
• fmc: MC6 MATa ade2-1 his3-11,15 trp1-1 leu2-3,112 ura3-I fmc1: :HIS3 [Δi ER OR] (Schwimmer, C. et al. (2005) J Biol Chem, 280, 30751-30759) for the first screening • MR14 MATa ade2-1 his3-11,15 trp1-1 leu2-3,112 ura3-1 CAN1 arg8::HIS3 ρ+ atp6-L173R or RKY20MATa ade2-1 his3-11,15 trp1-1 leu2-3,112 ura3-1 CAN1 arg8::HIS3 ρ+ atp6-L173P (Rak, M. et al. (2007) J Biol Chem, 282, 34039-34047) for the second screening • taz1Δ: this strain was produced by substituting the open reading framework of TAZ1 by that of TRP1 in the strain W303-1A (MATa ade2-1 ura3-1 his311, 15 trp1-1 leu2-3, 112 can1-100) (from Taffin de Tilques, M. et al. (2017) Dis Model Mech, 10, 439-450) • shy1-G137R: this mutant was produced in the strain CW252 containing the nuclear base of W303 and a mitochondrial gene lacking intron. […]

Another data set concerns mutant yeast strain sym1. In words: Cellular respiration (OROBOROS oxygraph) in sym1. Format: cell-based, Saccharomyces cerevisiae. Conditions: EBS 1 μM, compared to non-treated cells. As for the experimental part: Respiratory intensity corresponds to the amount of oxygen consumed with respect to time and the number of cells. It reflects the mitochondrial oxidative metabolism of the cells. The consumption of oxygen was measured using the OROBOROS oxygraph system. The cells were cultivated over 7-8 generations at 28° C. for 24 to 48 h in an Ethanol YPA medium supplemented by DMSO or EBS (1 μM). 10^7 cells were introduced into the oxygraph. The consumption of O2 was recorded with or without CCCP (maximum rate of oxygen consumption). The rate of O2 consumption was calculated on the basis of the linear part of the O2 consumption.
(§1) The experiments described in example 2 were implemented on the mutant yeast strain sym1.
(§2) The data are the averages ±SEM of at least three independent experiments. The significance of the variations between samples and the controls were estimated using the multi-factorial Anova: Tukey test.

The test system of data set [3] is Cox2 protein in mutant yeast strain sym1. In words: Accumulation of Cox2 protein in sym1. Format: cell-based, Saccharomyces cerevisiae. As to conditions: EBS 1 μM, compared to non-treated cells. Here is the method:
Total protein extracts from the mutant yeast strain were analyzed by SDS-PAGE ([…] per well) using antibodies against the indicated proteins. The gels shown are representative of at least 3 experiments. Protein levels were quantified using the ImageJ software. The levels of Cox2 were normalized with respect to Ade13p and expressed with respect to the wild type (WT) strain.
as §1, §2

For a further data set, the system named is mutant yeast strain taz1. Description: Respiratory growth in liquid culture (bioscreen, OD600). Type of data set: cell-based, Saccharomyces cerevisiae. As to conditions: taz1, liquid respiratory medium. Here is the method:
In order to determine the optimum concentration of EBS leading to the suppression of a respiratory growth defect of the mutant yeast strain, cells undergoing exponential growth were inoculated in fresh Ethanol YPA non-fermentable media supplemented or not supplemented with increasing concentrations of EBS. The growth of cells in the liquid respiratory medium was monitored using the bioscreen system over a period of 80 h during which (OD600 nm) cell densities were sampled every 20 minutes.

Setting [4] is: 96 hours, vs negative control DMSO.

Consider `O=c1c2ccccc2[se]n1-c1ccccc1` [ebselen, 2-phenyl-1,2-benzisoselenazol-3(2H)-one], for which the toxicity concentration in data set [1] (96 hours, fibroblasts of TAZ patients) was > 234.9 µM. In data set [1] (setting [4]), the “concentration range improving respiratory growth/proliferation, lower limit” value is on record as ≥ 1.35 nM and the “concentration range improving respiratory growth/proliferation, upper limit” value was ≤ 8.7 µM. Also, in data set [1] (EBS 12.15 nM, glucose 1 g/L, 24, 48, 72, 96 hours), the “respiratory growth of fibroblasts of TAZ patients” value is “improves”. The “time after which EBS is effective” value in data set [1] (EBS 12.15 nM, more pronounced at 48, 72 and 96 hours) came to 24 h. For the same molecule, the “respiratory growth (halo of improved growth)” value in data set [2] is on record as “active on all the mutant strains of yeast tested in a dose dependent manner”. The cell respiration result in the data set with mutant yeast strain sym1 is given as “increased”. Moreover, in data set [3], the “level of Cox2” value is listed as “increased”. In the data set on mutant yeast strain taz1, the “active concentration range, lower limit” value is ≥ 1 nM; the “active concentration range, upper limit” value was ≤ 3 µM; the optimum concentration amounted to 1 µM. Further, in the data set with mutant yeast strain taz1 (80 h), the toxic concentration was ≥ 27 µM.
